Measurements from patent US20240076347A1, “METHODS FOR PREVENTING FUNGAL INFECTIONS” (Cidara Therapeutics, Inc., priority 2016, published 2024).
Numbered stars: 1 amine (or outer) side, 2 acyl side, 3 side chain; on linkers, the order of the positions; unused ones are H or OH. Bridge positions count the residues as written; N and C are the ends. Square brackets hold non-standard residues; d marks the D form. Peptide text beside a SMILES is read from it. * marks the point of attachment. ξ: configuration not given here. Orn(4R-OH,5R-OCH2CH2NMe3+) = C[N+](C)(C)CCO[C@@H](N[*:3])[C@H](O)C[C@H](N[*:1])C(=O)[*:2]; hTyr(3S-OH,4S-OH,3'-OSO3H) = N[C@H](C(=O)O)[C@H](O)[C@@H](O)c1ccc(O)c(OS(=O)(=O)O)c1; pTerphenylCO(4''-OnC5H11) = CCCCCOc1ccc(-c2ccc(-c3ccc(C(=O)*)cc3)cc2)cc1; Orn(4R-OH,5R-OH) = O=C([C@H](C[C@@H](O)[C@@H](O)N[*:3])N[*:1])[*:2]; hTyr(3S-OH,4S-OH) = N[C@H](C(=O)O)[C@H](O)[C@@H](O)c1ccc(O)cc1; Pro(3S-OH,4S-Me) = C[C@H]1CN[C@H](C(=O)O)[C@H]1O; X2 = CCCCCOc1ccc(-c2cc(-c3ccc(C(=O)*)cc3)no2)cc1; Gln(3R-OH) = NC(=O)C[C@@H](O)[C@H](N)C(=O)O; X1 = C[C@H]1CN([*:1])C(C(=O)[*:2])C1O; Hyp = O=C(O)[C@@H]1C[C@@H](O)CN1; ξT = CC(O)C(N)C(=O)O

Key:
[1] = system: Aspergillus fumigatus (strain AF293); experiment: Murine model of pulmonary aspergillosis (Example 9), survival and lung burden; assay type: in vivo; settings: for Group Geometric mean / Log10 Group Geometric mean / Log10 reduction from vehicle control: terminal lung burden
Method: Animal Strain and Housing. Mice used in these studies were supplied by Charles River (Margate UK) and were specific pathogen free. The strain of mice used was ICR (also known as CD1 Mice) which is a well characterized outbred murine strain. Male mice were 11-15 g on receipt at our facility and allowed to acclimatize for at least seven days.
Immunosuppression. Mice were immunosuppressed on Day −4 with 150 mg/kg cyclophosphamide IP, and on Day −1 with 150 mg/kg cyclophosphamide IP and 175 mg/kg cortisone acetate SC. To prevent bacterial infection due to the immunosuppression mice were given 50 mg/kg/day ceftazidime.
Preparation of Organism and Infection. A. fumigatus strain AF293 inoculum was prepared from spore cultures grown on Sabouraud Dextrose agar (SAB) containing 50 μg/mL chloramphenicol (SABC) in vented tissue culture flasks. Following incubation for 7-10 days at 30° C., spore cultures were washed in sterile phosphate buffered saline (PBS) containing 0.05% Tween 80. Spore count was determined using a haemocytometer and spores were diluted in PBS to ˜6.9×10^6 CFU/mL. Inoculum concentration was confirmed by quantitative culture onto SABC agar. Neutropenic mice lungs were infected with 0.04 mL (0.02 mL/nares) of ˜6.9×10^6 CFU/mL (˜2.8×10^5 cfu/mouse) of A. fumigatus strain AF293 by intranasal (IN) instillation under temporary 2.5% isoflurane induced anesthesia.
Preparation of Test Articles. Micafungin was provided as a 50 mg vial (Lot 02323002, expiry 08/2017) and was prepared as per manufacturer instructions by adding 5 mL saline for injection (SFI) directly into the vial to make a 10 mg/mL stock solution. This solution was then diluted further in SFI to a working concentration of 0.2 mg/mL. The compound was administered IP at 10 mL/kg to achieve a 2 mg/kg dose. It was prepared fresh once and stored at 4° C. between doses.
Test article CD101 stock was prepared at 2 mg/mL in 10% DMSO/1% Tween 20 diluent. A clear non particulate solution was obtained following gentle mixing. The stock was kept at 4° C. until required. Study doses of 5 mg/kg (0.5 mg/mL) and 10 mg/kg (1 mg/mL) were prepared from the 2 mg/mL stock as required by diluting in 10% DMSO/1% Tween 20 diluent. The 2 mg/mL stock was used undiluted for the 20 mg/kg study dose. All doses were administered IP at 10 mL/kg.
Treatment. For this study, treatments were initiated on day five pre-infection according to treatment groups outlined in Table 15. A total of 78 mice (six mice per treatment group) were used in the study.
Endpoints. The primary endpoint for this study was survival within agreed ethical limits (>20% weight loss, severe hypothermia <34° C., inability to reach food or drink, severe hunching). Mice were monitored by daily weight measurements with observations as frequently as clinical condition required. Mice presenting with severe clinical deterioration were humanely euthanized using an overdose of pentobarbitone administered by IP injection following clinical assessment and the time of death was recorded. Animal carcasses were stored at −20° C. for assessment of burden. Ten days post infection all surviving animals were weighed and had their clinical condition assessed prior to being euthanized. Final survival numbers were recorded and analyzed as described below and carcasses frozen at −20° C. prior to further processing.
A secondary endpoint for the study was terminal lung tissue burden. Immediately following confirmation of death, carcasses were frozen at −20° C. prior to tissue dissection and processing. The frozen carcasses were thawed at room temperature and the lungs removed and placed into pre-weighed bead-beating tubes containing 2 mL of PBS and subjected to mechanical disruption. Organ homogenates were diluted further in PBS and quantitatively cultured for A. fumigatus onto SABC and incubated at 30° C. for 24-48 hours. […]

A. fumigatus AF293 = experiment: Pulmonary aspergillosis in neutropenic ICR mice (Examples 14, 15), prophylaxis, survival; assay type: in vivo, Aspergillus fumigatus
Method: Pulmonary aspergillosis: ICR mice (10/grp) were made neutropenic by cyclophosphamide on Day −4 (150 mg/kg), and CPM/cortisone on Day −1 (150/175 mg/kg). Intranasal infection with A. fumigatus AF293 (10^5 CFU/mouse) on Day 0. Prophylaxis CD101 as a single dose (IP; 5, 10, 20 mg/kg) or posaconazole (PO; 2 and 10 mg/kg) 1 day prior to infection. Survival monitored for 10 days.
Pulmonary aspergillosis: ICR mice (10/grp) were made neutropenic by cyclophosphamide on Day −4 (150 mg/kg), and cyclophosphamide/cortisone was given on Day −1 (150/175 mg/kg). Intranasal challenge with A. fumigatus AF293 (10^5 CFU/mouse) was initiated on Day 0 and prophylaxis with CD101 as a single dose (IP; 5, 10, 20 mg/kg) or posaconazole (PO; 2 and 10 mg/kg) was started 1 day prior to infection. Survival was monitored for 10 days.

[2] = Plasma protein binding by ultracentrifugation; assay type: in vitro ADME; settings: mouse plasma; read-out: percent of bound CD101, mean (protein binding) (converted)
Method: (§1) Concentrations in plasma ranging from 7 to 60 μg/mL were tested and resulting samples were analyzed by LC-MS/MS.

human plasma proteins = experiment: Plasma protein binding by ultracentrifugation; assay type: in vitro ADME
Method: as §1

[3] = 2 mg/kg IP Day 0 (1 h post infection)
[4] = 5 mg/kg IP Day 0 (1 h post infection)

CCCCCOc1ccc(-c2cc(-c3ccc(C(=O)N[C@H]4C[C@@H](O)[C@@H](O)NC(=O)[C@@H]5[C@@H](O)[C@@H](C)CN5C(=O)[C@H]([C@H](O)CC(N)=O)NC(=O)[C@H]([C@H](O)[C@@H](O)c5ccc(O)c(OS(=O)(=O)O)c5)NC(=O)[C@@H]5C[C@@H](O)CN5C(=O)[C@H]([C@@H](C)O)NC4=O)cc3)no2)cc1 [Micafungin, micafungin, reference compound] (X2-[Orn(4R-OH,5R-OH)]T[Hyp][hTyr(3S-OH,4S-OH,3'-OSO3H)][Gln(3R-OH)][Pro(3S-OH,4S-Me)]; lactam 1-C)
Mean Survival [1, 3]: 75.3 h | Median Survival [1, 3]: 73.3 h | Mean Survival ([1]; 2 mg/kg IP Day −1): 64.7 h | Median Survival ([1]; 2 mg/kg IP Day −1): 64.7 h | Group Geometric mean ([1]; 2 mg/kg IP Day 0): 1.08 × 10^4 CFU/g | Log10 Group Geometric mean ([1]; 2 mg/kg IP Day 0): 4.03 CFU/g | Log10 reduction from vehicle control ([1]; 2 mg/kg IP Day 0): −0.26 CFU/g | Group Geometric mean ([1]; 2 mg/kg IP Day −1): 4.34 × 10^4 CFU/g | Log10 Group Geometric mean ([1]; 2 mg/kg IP Day −1): 4.64 CFU/g | Log10 reduction from vehicle control ([1]; 2 mg/kg IP Day −1): −0.86 CFU/g | survival rate (A. fumigatus AF293; 5 mg/kg (human-equivalent 100 mg)): no survivors

CCCCCOc1ccc(-c2ccc(-c3ccc(C(=O)N[C@H]4C[C@@H](O)[C@@H](OCC[N+](C)(C)C)NC(=O)C5C(O)[C@@H](C)CN5C(=O)[C@H]([C@@H](C)O)NC(=O)[C@H]([C@H](O)[C@@H](O)c5ccc(O)cc5)NC(=O)[C@@H]5C[C@@H](O)CN5C(=O)C(C(C)O)NC4=O)cc3)cc2)cc1 (stereo partly drawn) [CD101] ({pTerphenylCO(4''-OnC5H11)}-[Orn(4R-OH,5R-OCH2CH2NMe3+)][ξT][Hyp][hTyr(3S-OH,4S-OH)]T[X1]; lactam 1-C)
Mean Survival [1, 4]: 67.8 h | Median Survival [1, 4]: 64.6 h | Mean Survival ([1]; 5 mg/kg IP Day −1): 72.1 h | Median Survival ([1]; 5 mg/kg IP Day −1): 67.6 h | Mean Survival ([1]; 5 mg/kg IP Day −3): 70.0 h | Median Survival ([1]; 5 mg/kg IP Day −3): 67.7 h | Mean Survival ([1]; 5 mg/kg IP Day −5): 65.3 h | Median Survival ([1]; 5 mg/kg IP Day −5): 65.3 h | Mean Survival ([1]; 10 mg/kg IP Day −1): 121.8 h | Median Survival ([1]; 10 mg/kg IP Day −1): 81.0 h | Mean Survival ([1]; 10 mg/kg IP Day −3): 76.9 h | Median Survival ([1]; 10 mg/kg IP Day −3): 73.4 h | Mean Survival ([1]; 10 mg/kg IP Day −5): 67.2 h | Median Survival ([1]; 10 mg/kg IP Day −5): 65.7 h | survival compared to micafungin one day before infection ([1]; 10 mg/kg and 20 mg/kg IP one day before infection): statistically greater survival | Mean Survival ([1]; 20 mg/kg IP Day −1): 155.6 h | Median Survival ([1]; 20 mg/kg IP Day −1): 72.3 h | Mean Survival ([1]; 20 mg/kg IP Day −3): 91.9 h | Median Survival ([1]; 20 mg/kg IP Day −3): 69.8 h | Mean Survival ([1]; 20 mg/kg IP Day −5): 75.5 h | Median Survival ([1]; 20 mg/kg IP Day −5): 69.8 h | Group Geometric mean ([1]; 5 mg/kg IP Day 0): 5.65 × 10^4 CFU/g | Log10 Group Geometric mean ([1]; 5 mg/kg IP Day 0): 4.75 CFU/g | Log10 reduction from vehicle control ([1]; 5 mg/kg IP Day 0): −0.98 CFU/g | Group Geometric mean ([1]; 5 mg/kg IP Day −1): 3.75 × 10^4 CFU/g | Log10 Group Geometric mean ([1]; 5 mg/kg IP Day −1): 4.57 CFU/g | Log10 reduction from vehicle control ([1]; 5 mg/kg IP Day −1): −0.80 CFU/g | Group Geometric mean ([1]; 5 mg/kg IP Day −3): 5.71 × 10^4 CFU/g | Log10 Group Geometric mean ([1]; 5 mg/kg IP Day −3): 4.76 CFU/g | Log10 reduction from vehicle control ([1]; 5 mg/kg IP Day −3): −0.98 CFU/g | Group Geometric mean ([1]; 5 mg/kg IP Day −5): 6.36 × 10^4 CFU/g | Log10 Group Geometric mean ([1]; 5 mg/kg IP Day −5): 4.80 CFU/g | Log10 reduction from vehicle control ([1]; 5 mg/kg IP Day −5): −1.03 CFU/g | Group Geometric mean ([1]; 10 mg/kg IP Day −1): 5.17 × 10^3 CFU/g | Log10 Group Geometric mean ([1]; 10 mg/kg IP Day −1): 3.71 CFU/g | Log10 reduction from vehicle control ([1]; 10 mg/kg IP Day −1): 0.06 CFU/g | Group Geometric mean ([1]; 10 mg/kg IP Day −3): 7.34 × 10^3 CFU/g | Log10 Group Geometric mean ([1]; 10 mg/kg IP Day −3): 3.87 CFU/g | Log10 reduction from vehicle control ([1]; 10 mg/kg IP Day −3): −0.09 CFU/g | Group Geometric mean ([1]; 10 mg/kg IP Day −5): 3.40 × 10^4 CFU/g | Log10 Group Geometric mean ([1]; 10 mg/kg IP Day −5): 4.53 CFU/g | Log10 reduction from vehicle control ([1]; 10 mg/kg IP Day −5): −0.76 CFU/g | Group Geometric mean ([1]; 20 mg/kg IP Day −1): 1.12 × 10^4 CFU/g | Log10 Group Geometric mean ([1]; 20 mg/kg IP Day −1): 4.05 CFU/g | Log10 reduction from vehicle control ([1]; 20 mg/kg IP Day −1): −0.28 CFU/g | Group Geometric mean ([1]; 20 mg/kg IP Day −3): 4.92 × 10^4 CFU/g | Log10 Group Geometric mean ([1]; 20 mg/kg IP Day −3): 4.69 CFU/g | Log10 reduction from vehicle control ([1]; 20 mg/kg IP Day −3): −0.92 CFU/g | Group Geometric mean ([1]; 20 mg/kg IP Day −5): 8.35 × 10^3 CFU/g | Log10 Group Geometric mean ([1]; 20 mg/kg IP Day −5): 3.92 CFU/g | Log10 reduction from vehicle control ([1]; 20 mg/kg IP Day −5): −0.15 CFU/g | fraction unbound at 2.5 hr [2]: 0.008 | percent of bound CD101, mean (human plasma proteins; human plasma, 7 to 60 μg/mL): 97.4% | higher free fraction in human vs mouse plasma (human plasma proteins; human vs mouse plasma): ~3 × | survival (A. fumigatus AF293; 20 mg/kg IP one day prior to infection (human 400 mg AUC equivalent)): increase in survival relative to control | survival rate (A. fumigatus AF293; 20 mg/kg IP one day prior to infection, 10 days): 30% | survival rate (A. fumigatus AF293; single dose IP (5, 10, 20 mg/kg) one day prior to infection): dose-dependent increase in survival rate
